Article PMC6359137 (2019)

System: AFM1 aptamer (DNA, aptamer) ACTGCTAGAGATTTTCCACAT
Test: strand displacement, Exo III-amplified NMM fluorescence
Details: K+ 75 mM, Mg2+ 10 mM; C-strand (S2) displaced; highest tested 1 ng mL^-1; 37 °C; compared with blank milk

binding: no
SMILES: C[C@@H]1Cc2c(Cl)cc(C(=O)N[C@@H](Cc3ccccc3)C(=O)O)c(O)c2C(=O)O1
